Columns and labels:
[1] = tested on: Gerbillinae; assay: Compound was evaluated for the inhibition of GR 73632-induced foot tapping in gerbils after intravenous administration at 2 hour; format: functional; details: read-out: ID50 (the source's name)
[2] = target: Voltage-gated inwardly rectifying potassium channel KCNH2 (Homo sapiens, UniProt Q12809); assay: Compound was evaluated for the displacement of labelled MK-499 from the cloned channel expressed in HEK cells (Ikr channel); format: cell-based, HEK293
Chain of Voltage-gated inwardly rectifying potassium channel KCNH2 (Q12809 whole entry): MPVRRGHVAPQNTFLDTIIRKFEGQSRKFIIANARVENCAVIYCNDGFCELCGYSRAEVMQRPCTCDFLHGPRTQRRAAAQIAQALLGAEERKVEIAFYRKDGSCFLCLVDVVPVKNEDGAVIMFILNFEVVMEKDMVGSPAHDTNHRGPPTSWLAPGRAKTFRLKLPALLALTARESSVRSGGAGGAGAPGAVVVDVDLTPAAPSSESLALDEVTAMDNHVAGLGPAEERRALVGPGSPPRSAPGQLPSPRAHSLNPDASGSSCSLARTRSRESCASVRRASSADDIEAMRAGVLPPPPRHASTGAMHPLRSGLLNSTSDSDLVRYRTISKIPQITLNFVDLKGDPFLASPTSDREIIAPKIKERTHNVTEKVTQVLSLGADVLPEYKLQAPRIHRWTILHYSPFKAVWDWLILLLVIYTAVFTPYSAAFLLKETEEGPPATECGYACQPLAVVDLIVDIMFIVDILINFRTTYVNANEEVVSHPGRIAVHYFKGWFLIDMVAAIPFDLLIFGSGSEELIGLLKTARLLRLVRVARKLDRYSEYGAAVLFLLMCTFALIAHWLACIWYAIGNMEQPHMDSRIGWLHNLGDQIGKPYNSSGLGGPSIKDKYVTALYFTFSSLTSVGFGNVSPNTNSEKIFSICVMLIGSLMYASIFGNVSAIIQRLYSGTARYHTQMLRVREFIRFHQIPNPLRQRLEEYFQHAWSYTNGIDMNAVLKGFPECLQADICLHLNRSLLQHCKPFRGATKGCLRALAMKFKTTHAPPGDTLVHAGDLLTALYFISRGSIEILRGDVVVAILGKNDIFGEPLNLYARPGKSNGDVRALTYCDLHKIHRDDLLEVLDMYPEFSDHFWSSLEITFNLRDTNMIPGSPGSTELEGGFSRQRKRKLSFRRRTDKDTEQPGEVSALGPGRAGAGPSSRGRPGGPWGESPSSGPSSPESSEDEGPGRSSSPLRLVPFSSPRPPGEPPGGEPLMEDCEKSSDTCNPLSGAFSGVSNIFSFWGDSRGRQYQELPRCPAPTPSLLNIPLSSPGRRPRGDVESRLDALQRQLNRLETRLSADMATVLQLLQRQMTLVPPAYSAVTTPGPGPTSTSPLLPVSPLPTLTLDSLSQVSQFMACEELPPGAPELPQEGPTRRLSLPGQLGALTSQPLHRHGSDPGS

[3] = tested on: Gerbillinae; assay: Compound was evaluated for the inhibition of GR 73632-induced foot tapping in gerbils after intravenous administration at 24 hr; format: functional; details: read-out: ID50 (the source's name)
[4] = tested on: Gerbillinae; assay: Compound was evaluated for the inhibition of GR 73632-induced foot tapping in gerbils after intravenous administration at 0 (initial) hour; format: functional; details: read-out: ID50 (the source's name)
[5] = target: Substance-P receptor (Homo sapiens, UniProt P25103); assay: Displacement of [125 I] -labelled substance P from the cloned Tachykinin receptor 1 expressed in CHO cells; format: cell-based
Chain of Substance-P receptor (P25103 whole entry): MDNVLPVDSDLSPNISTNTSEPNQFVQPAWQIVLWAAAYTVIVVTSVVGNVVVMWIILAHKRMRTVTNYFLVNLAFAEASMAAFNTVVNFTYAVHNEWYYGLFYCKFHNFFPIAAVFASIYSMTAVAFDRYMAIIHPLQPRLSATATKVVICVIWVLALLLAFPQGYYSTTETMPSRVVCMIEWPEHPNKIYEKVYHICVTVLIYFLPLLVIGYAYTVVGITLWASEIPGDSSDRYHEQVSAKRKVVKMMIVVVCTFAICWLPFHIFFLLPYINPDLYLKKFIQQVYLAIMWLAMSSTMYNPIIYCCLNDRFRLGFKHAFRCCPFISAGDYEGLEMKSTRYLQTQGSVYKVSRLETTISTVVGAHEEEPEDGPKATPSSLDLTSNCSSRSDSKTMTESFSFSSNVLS

[6] = tested on: Gerbillinae; assay: Compound was evaluated for the inhibition of GR 73632-induced foot tapping in gerbils 2 hour after oral administration; format: functional; details: read-out: ID50 (the source's name)
[7] = tested on: Gerbillinae; assay: Compound was evaluated for the inhibition of GR 73632-induced foot tapping in gerbils after intravenous administration at 24 hr at a concentration of 3 mg/kg; format: functional
[8] = tested on: Gerbillinae; assay: Compound was evaluated for the inhibition of GR 73632-induced foot tapping in gerbils after intravenous administration at 2 hour at a dose 3 mg/kg iv; format: functional
[9] = Bioavailability in rat; format: ADME, organism-based; details: in vivo
[10] = tested on: Gerbillinae; assay: Compound was evaluated for the inhibition of GR 73632-induced foot tapping in gerbils after intravenous administration; format: functional; details: read-out: ID50 (the source's name)

SMILES: CC(C(=O)N[C@]1(c2ccccc2)CC[C@@H](N2CCC(c3ccc(F)cc3)CC2)CC1)c1cc(C(F)(F)F)cc(C(F)(F)F)c1 (some centres not stated)
- ED50 [1]: 0.6 mg/kg
- Ki [2]: 43 nM
- ED50 [3]: 1.8 mg/kg
- ED50 [4]: 1.7 mg/kg

SMILES: CC(C(=O)N[C@]1(c2ccccc2)CC[C@@H](N2CCN(C(C)C)CC2)CC1)c1cc(C(F)(F)F)cc(C(F)(F)F)c1 (some centres not stated)
- IC50 [5]: 0.39 nM

SMILES: CC(C(=O)N[C@]1(c2ccccc2)CC[C@@H](N2CCC3(CC2)OCCO3)CC1)c1cc(C(F)(F)F)cc(C(F)(F)F)c1 (some centres not stated)
- IC50 [5]: 0.3 nM
- ED50 [3]: 5.4 mg/kg

SMILES: CC(C(=O)N[C@]1(c2ccccc2)CC[C@@H](N2CCC(O)CC2)CC1)c1cc(C(F)(F)F)cc(C(F)(F)F)c1 (some centres not stated)
- Ki [2]: 1400 nM
- IC50 [5]: 0.85 nM

SMILES: CC(C(=O)N[C@]1(c2ccccc2)CC[C@H](N2CCCCC2)CC1)c1cc(C(F)(F)F)cc(C(F)(F)F)c1 (some centres not stated)
- IC50 [5]: 2.4 nM

SMILES: CC(C(=O)N[C@]1(c2ccccc2)CC[C@H](N(C)C)CC1)c1cc(C(F)(F)F)cc(C(F)(F)F)c1 (some centres not stated)
- IC50 [5]: 22 nM

SMILES: CC(C(=O)NC1(c2ccccc2)CCC(N2CCC3(CCC(=O)O3)CC2)CC1)c1cc(C(F)(F)F)cc(C(F)(F)F)c1 (configuration not stated)
- Ki [2]: 400 nM
- IC50 [5]: 2.1 nM

SMILES: CC(C(=O)NC1(c2ccccc2)CCC(N2CCC3(CCOC3)CC2)CC1)c1cc(C(F)(F)F)cc(C(F)(F)F)c1 (configuration not stated)
- ED50 [1]: 1.1 mg/kg
- IC50 [5]: 0.34 nM
- ED50 [3]: 1.6 mg/kg
- ED50 [4]: 1.4 mg/kg
- ED50 [6]: 2.2 mg/kg

SMILES: CC1CCN([C@H]2CC[C@](NC(=O)C(C)c3cc(C(F)(F)F)cc(C(F)(F)F)c3)(c3ccccc3)CC2)CC1 (some centres not stated)
- Ki [2]: 460 nM
- IC50 [5]: 1.2 nM

SMILES: CC(C(=O)NC1(c2ccccc2)CCC(N2CCC3(CCCO3)CC2)CC1)c1cc(C(F)(F)F)cc(C(F)(F)F)c1 (configuration not stated)
- ED50 [1]: 0.7 mg/kg
- Ki [2]: 730 nM
- IC50 [5]: 0.22 nM
- ED50 [3]: 3.1 mg/kg

SMILES: CC(C(=O)NC1(c2ccccc2)CCC(N2CCC(O)(Cc3ccccc3)CC2)CC1)c1cc(C(F)(F)F)cc(C(F)(F)F)c1 (configuration not stated)
- Ki [2]: 260 nM
- IC50 [5]: 0.33 nM

SMILES: CC(C(=O)NC1(c2ccccc2)CCC(N2CCC3(CC2)CCC(C)(C)O3)CC1)c1cc(C(F)(F)F)cc(C(F)(F)F)c1 (configuration not stated)
- ED50 [1]: 1 mg/kg
- Ki [2]: 950 nM
- IC50 [5]: 0.35 nM
- inhibition in vivo at 3 mg/kg [7]: 72%

SMILES: CC(C(=O)NC1(c2ccccc2)CCC(N2CCC3(CCOC3=O)CC2)CC1)c1cc(C(F)(F)F)cc(C(F)(F)F)c1 (configuration not stated)
- Ki [2]: 490 nM
- IC50 [5]: 0.42 nM

SMILES: CC(C(=O)N[C@]1(c2ccccc2)CC[C@@H](N2CCC(=O)CC2)CC1)c1cc(C(F)(F)F)cc(C(F)(F)F)c1 (some centres not stated)
- IC50 [5]: 1.6 nM

SMILES: O=C(NCc1cc(C(F)(F)F)cc(C(F)(F)F)c1)[C@]1(c2ccccc2)CC[C@@H](N2CCC(c3ccc(F)cc3)CC2)CC1
- IC50 [5]: 0.34 nM
- inhibition in vivo at 3 mg/kg [8]: 15%
- bioavailability [9]: 70%
- ED50 [10]: 1.9 mg/kg

Reference: ChEMBL document CHEMBL1135170, “4,4-Disubstituted cyclohexylamine NK(1) receptor antagonists II” (Bioorg Med Chem Lett, 2002)
